Reference: publication PMC10746543, “Design principles for cyclin K molecular glue degraders” (Nature Chemical Biology, 2023)
Several values for one entry are separate records, joined by “and”; a condition that tells them apart may be missing. Equal values may be shown once. Read-outs that look alike come from different tables or passages of the source.

Experiments:
[1] = target: T1, CDK12–cyclin K and DDB1 (Homo sapiens, UniProt Q16531+Q9NYV4, K965R); experiment: TR-FRET ternary complex formation assay (compound titration); format: binding
T1 construct: His6–CDK12 (a.a. 713–1,052); full-length or beta-propeller B domain deletion (ΔBPB: a.a. 396–705 deleted) constructs of His6–DDB1ΔBPB, StrepII–Avi–DDB1, or His6–Spy–DDB1; made in house; host or cells: Trichoplusia ni High Five insect cells (baculovirus)
Summary of the method: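 Read-out used a 70 μs delay to cut background fluorescence; TR-FRET signal taken as the 520 nm/490 nm emission ratio.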

[2] = system: cyclin K–eGFP degradation reporter; experiment: Cyclin K reporter stability analysis (dual-color cyclin K–eGFP reporter); format: cell-based, human
Summary of the method: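 HEK293T–Cas9 cells carrying the cyclin K–eGFP reporter were seeded at 1 × 10^6 ml^−1 and exposed to drug or DMSO for 5 h. Flow cytometry gave geometric means of eGFP and mCherry in round, mCherry-positive cells. The eGFP/mCherry ratio was normalized to the mean of three DMSO controls.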

[3] = system: HEK293T cells; experiment: Drug sensitivity assay (CellTiter-Glo viability) with or without MLN4924 pretreatment; format: cell-based, human; details: for EC50: Homo sapiens, HEK-293T; for Toxicity rescue: MLN4924-mediated cytotoxicity rescue, 10 µM used where n.d.
Summary of the method: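 HEK293T–Cas9 cells at 0.15 × 10^6 ml^−1 were treated with DMSO or 100 nM MLN4924 before plating. Test drugs were added 2 h later and exposure lasted 3 days. Viability was read by CellTiter-Glo luminescence and expressed relative to DMSO controls.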

[4] = Supplementary Table 2, read-out: TR-FRET EC50 TR-FRET
[5] = in vitro complex formation, 50 nM CDK12–cyclin K, 100 nM DDB1, text and figures, read-out: TR-FRET EC50
[6] = sheet MOESM7, read-out: log TR-FRET EC50 (converted)
[7] = Supplementary Table 2, HEK293T cycK-eGFP reporter, 5 h, read-out: Cellular assays DC50
[8] = Supplementary Table 2, HEK293T viability, 72 h, compound alone, read-out: Cellular assays EC50
[9] = source data sheet correlations, read-out: TR-FRET EC50
[10] = source data sheet correlations, read-out: DC50

T1 sequence (Q9NYV4 713-1052 K965R): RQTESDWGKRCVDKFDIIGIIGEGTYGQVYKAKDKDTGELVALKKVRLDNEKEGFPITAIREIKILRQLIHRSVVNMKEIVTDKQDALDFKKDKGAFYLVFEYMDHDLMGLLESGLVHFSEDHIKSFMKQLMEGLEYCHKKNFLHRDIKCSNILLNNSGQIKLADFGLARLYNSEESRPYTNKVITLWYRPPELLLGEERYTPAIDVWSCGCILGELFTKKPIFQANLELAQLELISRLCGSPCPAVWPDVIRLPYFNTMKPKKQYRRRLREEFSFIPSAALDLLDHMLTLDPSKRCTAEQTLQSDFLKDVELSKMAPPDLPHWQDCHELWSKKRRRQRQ
T1 sequence (O75909 1-267 partner): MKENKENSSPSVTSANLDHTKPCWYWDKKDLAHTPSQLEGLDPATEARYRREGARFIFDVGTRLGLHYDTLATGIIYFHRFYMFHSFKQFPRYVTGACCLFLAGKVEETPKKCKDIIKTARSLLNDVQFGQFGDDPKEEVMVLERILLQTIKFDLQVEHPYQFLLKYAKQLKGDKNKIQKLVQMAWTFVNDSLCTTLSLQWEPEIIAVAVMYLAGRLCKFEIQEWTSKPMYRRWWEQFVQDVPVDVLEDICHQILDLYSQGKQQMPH
T1 sequence (Q16531 whole entry): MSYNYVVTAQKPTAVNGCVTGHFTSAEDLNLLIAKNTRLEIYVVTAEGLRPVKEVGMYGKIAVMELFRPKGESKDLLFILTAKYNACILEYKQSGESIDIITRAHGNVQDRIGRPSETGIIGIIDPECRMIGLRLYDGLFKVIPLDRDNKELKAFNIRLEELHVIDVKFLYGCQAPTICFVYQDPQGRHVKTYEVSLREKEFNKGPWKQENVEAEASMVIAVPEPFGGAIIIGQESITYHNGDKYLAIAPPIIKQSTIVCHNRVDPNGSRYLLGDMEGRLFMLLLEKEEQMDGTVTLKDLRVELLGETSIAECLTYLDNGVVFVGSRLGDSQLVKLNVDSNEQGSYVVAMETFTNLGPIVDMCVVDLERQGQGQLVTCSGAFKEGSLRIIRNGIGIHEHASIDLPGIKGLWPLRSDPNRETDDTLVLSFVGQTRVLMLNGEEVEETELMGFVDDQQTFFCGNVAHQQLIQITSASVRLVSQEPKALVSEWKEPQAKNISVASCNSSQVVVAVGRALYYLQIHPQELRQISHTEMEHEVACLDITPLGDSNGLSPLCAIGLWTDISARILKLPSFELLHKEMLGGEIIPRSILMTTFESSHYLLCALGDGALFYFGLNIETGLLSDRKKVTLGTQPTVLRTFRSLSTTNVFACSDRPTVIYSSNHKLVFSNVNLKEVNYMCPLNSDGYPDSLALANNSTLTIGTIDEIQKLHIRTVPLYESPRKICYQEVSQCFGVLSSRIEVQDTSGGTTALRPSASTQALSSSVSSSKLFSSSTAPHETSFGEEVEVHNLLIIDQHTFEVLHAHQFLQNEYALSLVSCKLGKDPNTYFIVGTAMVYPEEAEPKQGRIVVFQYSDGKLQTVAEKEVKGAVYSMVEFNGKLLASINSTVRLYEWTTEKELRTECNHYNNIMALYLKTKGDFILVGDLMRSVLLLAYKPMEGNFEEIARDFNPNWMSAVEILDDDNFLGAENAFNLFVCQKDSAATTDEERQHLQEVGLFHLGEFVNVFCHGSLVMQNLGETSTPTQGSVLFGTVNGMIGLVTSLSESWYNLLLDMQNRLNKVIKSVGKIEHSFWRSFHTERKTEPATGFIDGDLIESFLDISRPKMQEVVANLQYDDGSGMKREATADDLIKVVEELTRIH

`CC(C)n1cnc2c(NCc3ccc(-c4ccccn4)cc3)nc(NCCCCCC(=O)N[C@H]3O[C@H](CO)[C@@H](O)[C@H](O)[C@H]3O)nc21` [DS51] was tested. Which EC50 [1, 4] did it give?
The EC50 was 274 nM.

What about the “TR-FRET signal at compound concentration 4.68 nM” value ([1]; compound concentration 4.68 nM, raw titration data) of the same compound?
Its value is 0.2297 and 0.2444.

And the “TR-FRET signal at compound concentration 21.6 nM” value ([1]; compound concentration 21.6 nM, raw titration data)?
The value was 0.3216 and 0.3313.

And the “TR-FRET signal at compound concentration 36 nM” value ([1]; compound concentration 36 nM, raw titration data)?
The value was 0.5067 and 0.5037.

What about the “TR-FRET signal at compound concentration 79.2001 nM” value ([1]; compound concentration 79.2001 nM, raw titration data) of the same compound?
Its value is 0.816 and 0.7927.

What about the “TR-FRET signal at compound concentration 158.4 nM” value ([1]; compound concentration 158.4 nM, raw titration data) of the same compound?
Its value is 1.255 and 1.244.

And the “TR-FRET signal at compound concentration 309.6 nM” value ([1]; compound concentration 309.6 nM, raw titration data)?
Its value is 1.886 and 1.872.

And the “TR-FRET signal at compound concentration 626.401 nM” value ([1]; compound concentration 626.401 nM, raw titration data)?
The value was 2.526 and 2.552.

And the “TR-FRET signal at compound concentration 1252.8 nM” value ([1]; compound concentration 1252.8 nM, raw titration data)?
The value was 3.049 and 3.029.

And the “TR-FRET signal at compound concentration 2448 nM” value ([1]; compound concentration 2448 nM, raw titration data)?
Its value is 3.216 and 3.3184.

What about the “TR-FRET signal at compound concentration 9936.01 nM” value ([1]; compound concentration 9936.01 nM, raw titration data) of the same compound?
Its value is 3.256 and 3.415.

What about the “TR-FRET signal at compound concentration 20016 nM” value ([1]; compound concentration 20016 nM, raw titration data) of the same compound?
The value was 3.017 and 3.197.

And the EC50 [1, 5]?
The EC50 was 275 ± 16 nM.

What about the EC50 [1, 6] of the same compound?
The EC50 was 274 nM.

And the DC50 [2, 7]?
Its DC50 is > 10000 nM.

What about the EC50 [3, 8] of the same compound?
Its EC50 is > 10000 nM.

And the Toxicity rescue ([3]; Supplementary Table 2)?
The Toxicity rescue was 0%.

How did the “TR-FRET signal at compound concentration 0.468 nM” value ([1]; raw titration data) turn out when `CC[C@H](CO)Nc1nc(NCc2ccc(-c3ccncc3)nc2)c2ncn(C(C)C)c2n1` [DS53] was run?
Its value is 0.2712 and 0.18 and 0.1818.

And the “TR-FRET signal at compound concentration 2.16 nM” value ([1]; raw titration data)?
Its value is 0.3079 and 0.2048 and 0.2158.

What about the “TR-FRET signal at compound concentration 3.6 nM” value ([1]; raw titration data) of the same compound?
Its value is 0.3797 and 0.262 and 0.2749.

What about the “TR-FRET signal at compound concentration 7.92001 nM” value ([1]; raw titration data) of the same compound?
The value was 0.5132 and 0.3757 and 0.3886.

And the “TR-FRET signal at compound concentration 15.84 nM” value ([1]; raw titration data)?
The value was 0.7262 and 0.5713 and 0.5982.

And the “TR-FRET signal at compound concentration 30.96 nM” value ([1]; raw titration data)?
Its value is 1.044 and 0.9086 and 0.9152.

What about the “TR-FRET signal at compound concentration 62.6401 nM” value ([1]; raw titration data) of the same compound?
Its value is 1.465 and 1.176 and 1.2036.

What about the “TR-FRET signal at compound concentration 125.28 nM” value ([1]; raw titration data) of the same compound?
Its value is 1.697 and 1.379 and 1.374.

And the “TR-FRET signal at compound concentration 244.8 nM” value ([1]; raw titration data)?
The value was 1.763 and 1.446 and 1.498.

And the “TR-FRET signal at compound concentration 993.601 nM” value ([1]; raw titration data)?
Its value is 1.748 and 1.523 and 1.543.

And the “TR-FRET signal at compound concentration 2001.6 nM” value ([1]; raw titration data)?
Its value is 1.731 and 1.529 and 1.559.

And the EC50 [1, 5]?
Its EC50 is 28 ± 2 nM.

What about the EC50 [1, 9] of the same compound?
The EC50 was 27.7 nM.

What about the DC50 [2, 10] of the same compound?
Its DC50 is 260 nM.

What about the EC50 [3, 8] of the same compound?
Its EC50 is 635 nM.

What about the Toxicity rescue ([3]; Supplementary Table 2) of the same compound?
Its Toxicity rescue is 140%.

How did the EC50 [1, 4] turn out when `Cn1cc(-n2cnc3c(NCc4nc5cc(O)ccc5[nH]4)nc(N4CCOCC4)nc32)cn1` [DS54] was run?
Its EC50 is 252 nM.

And the TR-FRET signal ([1]; compound concentration 4.68 nM)?
The TR-FRET signal was 0.1326 and 0.1303.

What about the “TR-FRET signal at compound concentration 4.68 nM” value ([1]; compound concentration 4.68 nM, raw replicate titration data) of the same compound?
The value was 0.1326 and 0.1303.

And the TR-FRET signal ([1]; compound concentration 21.6 nM)?
The TR-FRET signal was 0.1333 and 0.1406.

What about the “TR-FRET signal at compound concentration 21.6 nM” value ([1]; compound concentration 21.6 nM, raw replicate titration data) of the same compound?
Its value is 0.1333 and 0.1406.

And the TR-FRET signal ([1]; compound concentration 36 nM)?
Its TR-FRET signal is 0.1624 and 0.1682.

What about the “TR-FRET signal at compound concentration 36 nM” value ([1]; compound concentration 36 nM, raw replicate titration data) of the same compound?
The value was 0.1624 and 0.1682.

What about the TR-FRET signal ([1]; compound concentration 79.2001 nM) of the same compound?
The TR-FRET signal was 0.2054 and 0.2174.

What about the “TR-FRET signal at compound concentration 79.2001 nM” value ([1]; compound concentration 79.2001 nM, raw replicate titration data) of the same compound?
The value was 0.2054 and 0.2174.

What about the TR-FRET signal ([1]; compound concentration 158.4 nM) of the same compound?
Its TR-FRET signal is 0.3007.

What about the “TR-FRET signal at compound concentration 158.4 nM” value ([1]; compound concentration 158.4 nM, raw replicate titration data) of the same compound?
The value was 0.3007.

What about the TR-FRET signal ([1]; compound concentration 309.6 nM) of the same compound?
The TR-FRET signal was 0.4286 and 0.4588.

And the “TR-FRET signal at compound concentration 309.6 nM” value ([1]; compound concentration 309.6 nM, raw replicate titration data)?
The value was 0.4286 and 0.4588.

What about the TR-FRET signal ([1]; compound concentration 626.401 nM) of the same compound?
Its TR-FRET signal is 0.5953 and 0.5848.

And the “TR-FRET signal at compound concentration 626.401 nM” value ([1]; compound concentration 626.401 nM, raw replicate titration data)?
Its value is 0.5953 and 0.5848.

What about the TR-FRET signal ([1]; compound concentration 1252.8 nM) of the same compound?
The TR-FRET signal was 0.6865 and 0.6689.

What about the “TR-FRET signal at compound concentration 1252.8 nM” value ([1]; compound concentration 1252.8 nM, raw replicate titration data) of the same compound?
Its value is 0.6865 and 0.6689.

What about the TR-FRET signal ([1]; compound concentration 2448 nM) of the same compound?
The TR-FRET signal was 0.7142 and 0.68.

What about the “TR-FRET signal at compound concentration 2448 nM” value ([1]; compound concentration 2448 nM, raw replicate titration data) of the same compound?
Its value is 0.7142 and 0.68.

And the TR-FRET signal ([1]; compound concentration 9936.01 nM)?
The TR-FRET signal was 0.6777 and 0.6603.

And the “TR-FRET signal at compound concentration 9936.01 nM” value ([1]; compound concentration 9936.01 nM, raw replicate titration data)?
Its value is 0.6777 and 0.6603.

And the TR-FRET signal ([1]; compound concentration 20016 nM)?
The TR-FRET signal was 0.6177 and 0.617.

What about the “TR-FRET signal at compound concentration 20016 nM” value ([1]; compound concentration 20016 nM, raw replicate titration data) of the same compound?
The value was 0.6177 and 0.617.

What about the DC50 [2, 7] of the same compound?
The DC50 was > 10000 nM.

What about the EC50 ([3]; Supplementary Fig. 5, HEK293T, CellTiter Glo, 72h, pre-treatment with 100 nM MLN4924, read-out: Viability EC50, with MLN4924) of the same compound?
Its EC50 is 3290 nM.

What about the EC50 ([3]; Supplementary Fig. 5, HEK293T, CellTiter Glo, 72h, read-out: Viability EC50, no MLN4924) of the same compound?
Its EC50 is 73 nM.

And the EC50 [3, 8]?
Its EC50 is > 10000 nM.

And the Toxicity rescue ([3]; Supplementary Table 2)?
Its Toxicity rescue is 0%.

For `Cn1cc(-n2cnc3c(NCc4nc5cc(Cl)c(Cl)cc5[nH]4)nc(NCCc4cn[nH]c4)nc32)cn1` [DS57], which “TR-FRET signal at compound concentration 0.468 nM” value ([1]; raw replicate titration data) is on record?
Its value is 0.2681 and 0.2803.

And the “TR-FRET signal at compound concentration 2.16 nM” value ([1]; raw replicate titration data)?
Its value is 0.3056 and 0.3131.

What about the “TR-FRET signal at compound concentration 3.6 nM” value ([1]; raw replicate titration data) of the same compound?
The value was 0.3611 and 0.3774.

What about the “TR-FRET signal at compound concentration 7.92001 nM” value ([1]; raw replicate titration data) of the same compound?
Its value is 0.4715 and 0.4922.

What about the “TR-FRET signal at compound concentration 15.84 nM” value ([1]; raw replicate titration data) of the same compound?
The value was 0.6621 and 0.6827.

What about the “TR-FRET signal at compound concentration 30.96 nM” value ([1]; raw replicate titration data) of the same compound?
Its value is 1.043 and 1.045.

And the “TR-FRET signal at compound concentration 62.6401 nM” value ([1]; raw replicate titration data)?
The value was 1.709 and 1.668.

And the “TR-FRET signal at compound concentration 125.28 nM” value ([1]; raw replicate titration data)?
Its value is 2.476 and 2.42.

What about the “TR-FRET signal at compound concentration 244.8 nM” value ([1]; raw replicate titration data) of the same compound?
Its value is 2.963 and 3.026.

And the “TR-FRET signal at compound concentration 993.601 nM” value ([1]; raw replicate titration data)?
Its value is 3.269 and 3.459.

And the “TR-FRET signal at compound concentration 2001.6 nM” value ([1]; raw replicate titration data)?
The value was 3.336 and 3.495.

What about the EC50 [1, 5] of the same compound?
Its EC50 is 72 ± 5 nM.

And the EC50 [1, 6]?
The EC50 was 72.3 nM.

What about the EC50 [1, 9] of the same compound?
Its EC50 is 72.3 nM.

And the DC50 [2, 10]?
Its DC50 is 587 nM.

And the EC50 [3, 8]?
The EC50 was > 10000 nM.

And the Toxicity rescue ([3]; Supplementary Table 2)?
The Toxicity rescue was 0%.
